# Patent publication US6147076A, “Analogues of N-acetylardeemin, method of preparation and uses thereof” (priority 1996, dated 2000)
# Read-outs that look alike come from different tables or passages of the source.
# Tests used:
# [1] = test system: CCRF-CEM cells
# [2] = test system: CCRF-CEM/VBL100 cells; conditions: ccrf-cem/vbl100 cells
# [3] = test system: DC-3F/ADII cells; conditions: for (B)/(A): IC50 ratio DC-3F/ADII to DC-3F, * collaterally sensitive
# [4] = test system: CCRF-CEM cells; assay: Influx of [3H]VP-16 in CCRF-CEM cells; type: cell-based, human; conditions: Homo sapiens, CCRF-CEM, 0.5 h; 20 μM, 30 min, 37° C.; read-out: increase of VP-16 accumulation
# [5] = test system: CCRF-CEM cells; assay: Cytotoxicity / growth inhibition of CCRF-CEM leukemic cells; conditions: Homo sapiens
# [6] = test system: DC-3F hamster lung cells; assay: Cytotoxicity toward DC-3F hamster lung cells
# [7] = test system: CCRF-CEM/VLB-100 cells; assay: Intracellular accumulation of [3H]vinblastine in CCRF-CEM/VLB-100 cells; type: cell-based, human; conditions: 30 μM
# Method: (§1) *Cells were preloaded with [^3 H]
# (§2) times (or without wash) with 100 ml cold medium to remove extracellular
# (§3) with or without a reverse prenyl compound or an MDRreversing agent. Cells
# (§4) were then separated from radioactive medium by microfuge oillayer method.
# (§5) Extracellular space counts carried down # by cells (^3 HInulin space
# (§6) were subtracted from the total radioactive counts.
# [8] = test system: DC-3F hamster lung cells; conditions: dc-3f cells
# [9] = test system: CCRF-CEM/VM-1 cells; assay: Cytotoxicity toward VM-26-resistant CCRF-CEM/VM-1 cells (mutated Topo II gene); type: cell-based, human
# [10] = test system: CCRF-CEM cells; assay: Accumulation of VP-16 in CCRF-CEM cells preloaded with [3H]VP-16; conditions: Homo sapiens, 0.5 h, read-out: increase of intracellular accumulation of VP-16
# [11] = test system: CCRF-CEM cells; assay: Intracellular accumulation of [3H]vinblastine in CCRF-CEM cells; type: cell-based, human; conditions: 30 μM
# Method: as §1, §2, §3, §4, §5, §6
# [12] = test system: CCRF/VM-1 cells; assay: Intracellular accumulation of VP-16 in CCRF/VM-1 cells; conditions: Homo sapiens, 0.5 h, read-out: increase of VP-16 accumulation
# [13] = test system: DC-3F/ADII cells; assay: cells; conditions: Mesocricetus auratus, DC3F, read-out: IC50 (B)
# [14] = test system: CCRF-CEM/VBL100 cells; assay: cells; conditions: Homo sapiens, read-out: IC50 of reversing agent, Table 6B, CCRF-CEM/VBL
# [15] = test system: DC-3F/ADX cells; assay: Cytotoxicity toward DC-3F/ADX cells; type: cell-based, hamster; conditions: for IC50: DC3F/ADX, DC-3F/ADX; for (C)/(A): IC50 ratio DC-3F/ADX to DC-3F, * collaterally sensitive
# [16] = test system: P388/0 tumor; conditions: DMNAA 50.0 mg/kg
# Method: ^a Male BDF mice were inoculated with P388/O, 10^6 cell/mouse,
# i.p. on day 0; and started treatment on day 1, i.p., Q5Dx5, besides mice
# with dose VBL 3.0 and VBL 3.0 mg/kg + DMNAA 50 mg/kg, only one injection
# i.p., on day 1. There were five mice at every dose and ten in the control
# [17] = Mesocricetus auratus, DC3F, relative cytotoxicity, DC-3F
# [18] = read-out: IC50 of reversing agent, Table 6B, CCRF-CEM
# [19] = Mesocricetus auratus, DC3F, read-out: IC50 (A), mean ± spread, mean of the determinations
# [20] = Mesocricetus auratus, DC3F, read-out: IC50 (A), single determinations
# [21] = read-out: IC50 (A), single determinations
# [22] = Homo sapiens, CCRF-CEM, Table 6B, CCRF-CEM/VM-1, read-out: IC50 of reversing agent
Compound,IC90 [1] [µM],IC90 [2] [µM],IC90 ([3]; dc-3f/adii cells) [µM],IC50 ([5]; human leukemic CCRF-CEM cells) [µM],"IC50 [6, 17] [µM]",[3H]vinblastine accumulation ([7]; washed) [fmole/10^3 cells],[3H]vinblastine accumulation ([7]; without wash) [fmole/10^3 cells],IC80 [8] [µM],IC90 [8] [µM],IC90 ([9]; ccrf-cem/vm-1 cells) [µM],[3H]vinblastine accumulation ([11]; washed) [fmole/10^3 cells],[3H]vinblastine accumulation ([11]; without wash) [fmole/10^3 cells],IC50 [13] [µM],(B)/(A) [3] [X],IC50 [14] [µM],"IC50 [5, 18] [µM]","IC50 [6, 19] [µM]","IC50 [6, 20] [µM]","IC50 [6, 21] [µM]",IC50 [15] [µM],also measured
C=CC(C)(C)C12CC3c4nc5ccccc5c(=O)n4C(C)C(=O)N3C1Nc1ccccc12 (stereo not drawn) [Ardeemin],65.7,27.9,24.6,20.8,10.2,5.42,22.84,10.2,30.9,88.8,29.94,34.68,–,–,–,–,–,–,–,–,activation at 20 µM [4]: 33%; fold induction at 20 µM [10]: 3.1; fold induction at 20 µM [12]: 1.51
C=CC(C)(C)C12CC3c4nc5ccccc5c(=O)n4CC(=O)N3C1Nc1ccccc12 (stereo not drawn) [8-Desmethyl-Ardeemin],–,–,–,–,–,–,–,–,–,–,–,–,26.5,3.5,18.8,14.3,9.58 ± 1.29,10.9,8.29,4.7,"(C)/(A) [15]: 0.49 X; IC50 [9, 22]: 18.1 µM"
"C=CCC12CC3c4nc5ccccc5c(=O)n4C(C)C(=O)N3C1N(C(C)=O)c1ccccc12 (stereo not drawn) [5-N-Ac""Allyl"" ardeemin, ""Allyl"" 5-N-acetylardeemin]",888,81.1,34.7,53.3,17.4,6.18,27.21,17.4,56.2,916,28.88,33.35,–,–,–,–,–,–,–,–,IC50 [1]: 53.3 µM; IC50 [2]: 35.8 µM; IC50 ([3]; dc-3f/adii cells): 5.21 µM; IC50 ([9]; ccrf-cem/vm-1 cells): 45 µM
"C=CC(C)(C)C12CC3c4nc5ccccc5c(=O)n4CC(=O)N3C1N(C(C)=O)c1ccccc12 (stereo not drawn) [5-N-Ac-8-desmethyl-Ardeemin, N-Acetyl-8-desmethyl-ardeemin]",–,–,–,–,–,7.66,33.53,–,–,–,29.33,33.13,14.6,0.50,32.9,22.7,29.3 ± 8.38,37.7,20.9,3.98,"% ILS [16]: +1%; MST [16]: 8.40 days; (C)/(A) [15]: 0.14 X; IC50 [9, 22]: 35.8 µM"
